We go through five molecules from US7855200B2, “Method for treatment of gastric ulcers and ulcers induced by aspirin” (Council of Scientific and Industrial Research, priority 2006, dated 2010).

In general, inhibition refers to the share of the control response that was lost under treatment.

What all share (format): in vivo, albino rats
Assay [1] relates to acetyl salicylic acid induced gastric lesions. Put plainly: Acetyl salicylic acid (aspirin) induced gastric ulcer. The arrangement: Ulcer index Mean(SE): scale not given here. The note with it: rats, 25 mg/kg per orally daily for five days, aspirin 200 mg/kg; for inhibition at 25 mg/kg: Rattus norvegicus, po, 120 h. Here is the method:
Stress induced gastric ulceration The commercially available drug ranitidine (sigma), Omeprazole (sigma) and sucralfate (Merck) were used as reference standard in experimental models. The Tween-80 (SD fine chemicals) was used as vehicle for the administration of the drug, which is used as control. Antiulcer activity of the compounds under taken was studied. The animals were divided into 20 groups of 6 animals each. Group 1 received the vehicle Tween 80 (1%, 1 ml) which served as the control. Group 2 received ranitidine at a dose of 50-mg/kg body weight, which served as standard for comparison. Group 3 to 20 at a dose of 25 mg/kg body weight. Rats were administered per orally with a daily dose of the compounds and the drug ranitidine for a period of five days and then fasted for 24 hours. The […] acetyl salicylic acid (aspirin) at a dose of 200 mg/kg body weight was administered as a suspension in tween-80 (1%), 30 min after the drug administration each day. All drugs were administered orally on the 6th day after the last administration of the drugs and the ulcer inducing agent aspirin, the rats were killed by cervical dislocation and their stomach were opened along the greater curvature and washed with luke warm saline and examined under a dissecting microscope. The ulcer index was calculated for each stomach. […] The antiulcer activity of the compounds was studied. The animals were divided into 19 groups of 6 animals each. Group 1 received the vehicle Tween 80 (1%, 1 ml) which served as the control. Group 2 received ranitidine at a dose of 50-mg/kg-body weight, which served as standard for comparison. […] Rats were administered per orally with a daily dose of the compounds and the drug ranitidine to respective groups for a period of five days and then fasted for 24 hours. The […] acetyl salicylic acid (aspirin) at a dose of 200 mg/kg body weight was administered as a suspension in tween-80 (1%), 30 min after the drug administration each day. All drugs were administered orally on ht […] day after the last administration of the drugs and the ulcer inducing agent aspirin, the rats were killed by cervical dislocation and their stomach were opened along the greater curvature and washed with luke warm saline and examined under a dissecting microscope.

For assay [2], the system named is gastric ulceration in cold restraint rats. Put plainly: Cold restraint (stress) induced ulcers. The arrangement: Ulcer index Mean(SE): scale not given here. The note with it: rats, 25 mg/kg per orally, 4° C. for 2 hours; for inhibition at 25 mg/kg: Rattus norvegicus, po.
Source text: (§1) The compounds taken under study for antigastric ulcer screening by four different models were selected using experimental albino rats: • 1. Aspirin induced gastric ulceration • 2. Pylorus ligated gastric ulceration • 3. Ethanol induced gastric ulceration • 4. Stress induced gastric ulceration
(§2) The commercially available drug ranitidine (sigma), Omeprazole (sigma) and sucralfate (Merck) were used as reference standard in experimental models. The Tween-80 (SD fine chemicals) was used as vehicle for the administration of the drug, which is used as control.
(§3) The antiulcer activity of the compounds was studied. The animals were divided into 21 groups of 7 animals each. Group 1 received the vehicle Tween 80 (1%, 1 ml) which served as the control. Group 2 received ranitidine at a dose of 50-mg/kg body weight, which served as standard for comparison. Group 3 to 21 at a dose of 25 mg/kg body weight. Animals were deprived of food 48 hours before the experiment. The water was allowed for free access. Rats were administered per orally with compounds and the drug ranitidine. The water was removed 1 hour before restraint and exposed to a temperature of 4° C. for 2 hours. Two hours after stress, the animals were sacrificed. The stressed animals were opened along the greater curvature and the severity of gastric ulcer was assessed in terms of mean ulcer index. 2.
as §3, with “8” for “21”, “6” for “7”, “50, 25, 15, 10 and 5” for “25”, “weight respectively.” for “weight.”, “index.” for “index. 2.”

Assay [3] deals with ethanol induced gastric ulcers. Put plainly: Ethanol induced ulcers. The note with it: rats, 25 mg/kg, ethanol challenge; for Acidity Total mEg / Gastric content / pH: 4 hours after pylorus ligation; for inhibition at 25 mg/kg: Rattus norvegicus. Here is the method: Stress induced gastric ulceration The commercially available drug ranitidine (sigma), Omeprazole (sigma) and sucralfate (Merck) were used as reference standard in experimental models. The Tween-80 (SD fine chemicals) was used as vehicle for the administration of the drug, which is used as control. The animals were divided into 22 groups of 6 animals each. Animals were deprived of food for 48 hours but had free access to water. Group 1 received the vehicle Tween 80 (1%, 1 ml) which served as the control. Group 2 received ranitidine at a dose of 50-mg/kg-body weight, which served as standard for comparison. Group 3 to received Omeprazole at a dose of 30-mg/kg body weight, which served as standard for comparison. Group 4 received sucralfate at a dose of 400-mg/kg body weight, which served as standard for comparison. Group 5 to 22 received at a dose of 25 mg/kg body weight. Lesions were induced 1 hour after ethanol challenge animals. The stomach was ligated at the pylorus under ether anesthesia. 4 hours after pylorus ligation, the animals were sacrificed and the contents drained and centrifuges at 5000 rpm for 10 minutes. Aliquots of supernatant were used for determination of total acid by titrating with 0.01N NaOH using topfers reagent and phenolphthalein indicators. […] The animals were divided into 9 groups of 6 animals each. Animals were deprived of food for 48 hours but had free access to water. Group 1 received the vehicle Tween 80 (1%, 1 ml) which served as the control. Group 2 received ranitidine at a dose of 50-mg/kg-body weight, which served as standard for comparison. Group 3 to received Omeprazole at a dose of 30-mg/kg body weight, which served as standard for comparison. Group 4 received sucralfate at a dose of 400-mg/kg body weight, which served as standard for comparison. […] Lesions were induced 1 hour after ethanol challenge animals. The stomach was ligated at the pylorus under ether anesthesia. 4 hours after pylorus ligation, the animals were sacrificed and the contents drained and centrifuges at 5000 rpm for 10 minutes. Aliquots of supernatant were used for determination of total acid by titrating with 0.01N NaOH using topfers reagent and phenolphthalein indicators.

The subject of another assay is Pylorus ligated rats. Put plainly: Pylorus ligated ulcers. Conditions: 25 mg/kg, 4 hours after pylorus ligation.
Source text: as §1, §2
The animals were divided into 19 groups of 6 animals each. Animals were deprived of food for 48 hours but had free access to water. Group 1 received the vehicle Tween 80 (1%, 1 ml) which served as the control. Group 2 received ranitidine at a dose of 50-mg/kg-body weight, which served as standard for comparison. […] After one hour of administration of drug the stomach was ligated at the pylorus under ether anesthesia. 4 hours after pylorus ligation, the animals were sacrificed and the contents drained and centrifuges at 5000 rpm for 10 minutes. Aliquots of supernatant were used for determination of total acid by titrating with 0.01N NaOH using topfers reagent and phenolphthalein indicators. 4.
The animals were divided into 7 groups of 6 animals each. Animals were deprived of food for 48 hours but had free access to water. Group 1 received the vehicle Tween 80 (1%, 1 ml) which served as the control. Group 2 received ranitidine at a dose of 50-mg/kg-body weight, which served as standard for comparison. Group 3 to 7 received at a dose of 50, 25, 15, 10 and 5 mg/kg body weight respectively. After one hour of administration of drug the stomach was ligated at the pylorus under ether anesthesia. 4 hours after pylorus ligation, the animals were sacrificed and the contents drained and centrifuges at 5000 rpm for 10 minutes. Aliquots of supernatant were used for determination of total acid by titrating with 0.01N NaOH using topfers reagent and phenolphthalein indicators.

On to `CN1CCN(CCCCOc2cc(O)c3c(=O)cc(-c4ccccc4)oc3c2)CC1` [NMC-3, 5-Hydroxy-7-[4-(4-methyl-piperzin-1-yl]-butoxy)-2-phenyl chromen-4-one], for which, in assay [1], the Inhibition % is 33.52% and the “Ulcer index Mean(SE)” value was 30.00. Further, in assay [2], the Inhibition % is listed as 57.92% and the “Ulcer index Mean(SE)” value turned out to be 17.13. Further, in assay [3], the Inhibition % is 36.25%, the “Ulcer index Mean(SE)” value is 42.50 (±3.09), the “Acidity Total mEg” value is 33.48 (±2.28) mEg and the Gastric content was 4.5 (±1.12). Moreover, the pH in assay [3] is 4.50 (±0.18). Besides, in the assay with Pylorus ligated rats, the “Acidity Total mEg” value is given as 43.48 (±2.50) m Eg, the Gastric content is 1.92 (±0.20), the Inhibition % is 33.49% and the “Ulcer index Mean(SE)” value is 33.33 (±2.47). In addition, the pH in the assay with Pylorus ligated rats was 3.54 (±0.15).
In the case of `COc1c(OC2OC(C(=O)O)C(O)C(O)C2O)cc2oc(-c3ccccc3)cc(=O)c2c1O` (centres unmarked) [OA-5 acid, 3,4,5-Trihydroxy-6-(5-hydroxy-6-methoxy-4-oxo-2-phenyl-4H-chromen-7-yloxy)-tetrahydro-pyran-2-carboxylic acid], in assay [1], the inhibition at 25 mg/kg is 48.3% and the “Ulcer index Mean(SE)” value was 23.33. Also, in assay [2], the inhibition at 25 mg/kg was found to be 41.9% and the “Ulcer index Mean(SE)” value was 23.33. Further, in assay [3], the inhibition at 25 mg/kg came to 45%, the “Ulcer index Mean(SE)” value was 36.66 (±3.33), the “Acidity Total mEg” value is listed as 47.66 (±1.45) mEg and the Gastric content is on record as 5.50 (±0.28). Besides, the pH in assay [3] is reported as 3.20 (±0.17). Moreover, in the assay on Pylorus ligated rats, the “Acidity Total mEg” value is 41.00 (±0.57) m Eg, the Gastric content is 2.16 (±0.16), the “Ulcer index Mean(SE)” value was 38.33 (±1.66) and the pH was 3.03 (±0.03). The molecule also returned an inhibition at 25 mg/kg in the assay on Pylorus ligated rats (Rattus norvegicus) of 23.5%.
`COc1c(OC2OC(CO)C(O)C(O)C2O)cc2oc(-c3ccccc3)cc(=O)c2c1O` (centres unmarked) [OA-G, 5-Hydroxy-6-methoxy-2-phenyl-7-(3,4,5-trihydroxy-6-hydroxyrnethyl-tetrahydro-pyran-2-yloxy)-chromen-4-one]: in assay [1], the Inhibition % stood at 32.05% and the “Ulcer index Mean(SE)” value is recorded as 30.66. Further, in assay [2], the Inhibition % was 19.52% and the “Ulcer index Mean(SE)” value is reported as 32.33. In addition, in assay [3], the Inhibition % was 20.00%, the “Ulcer index Mean(SE)” value was 53.33 (±6.66), the “Acidity Total mEg” value is recorded as 36.66 (±0.88) mEg and the Gastric content was 4.33 (±0.11). Besides, the pH in assay [3] is 4.31 (±0.11). Moreover, in the assay with Pylorus ligated rats, the “Acidity Total mEg” value was 41.66 (±1.66) m Eg, the Inhibition % came to 30.16%, the “Ulcer index Mean(SE)” value is recorded as 35.00 (±2.88) and the pH was 3.20 (±0.15).
Regarding `CCCCCCCCCCCCCCCCC(=O)Oc1cc2oc(-c3ccccc3)cc(=O)c2c(O)c1OC` [ORC-16, Heptadecanoic acid 5-hydroxy-6-methoxy-4-oxo-2-phenyl-4H-chromen-7-yl ester], in assay [1], the inhibition at 25 mg/kg amounted to 13.3% and the “Ulcer index Mean(SE)” value came out at 39.13. For the same molecule, in assay [2], the inhibition at 25 mg/kg worked out at 14% and the “Ulcer index Mean(SE)” value is given as 35.00. Also, in assay [3], the inhibition at 25 mg/kg is 22.8%, the “Ulcer index Mean(SE)” value is recorded as 51.50 (±1.05), the “Acidity Total mEg” value is reported as 43.20 (±3.86) mEg and the Gastric content is 3.7 (±0.10). Moreover, in assay [3], the pH was 3.58 (±0.23). Also, in the assay on Pylorus ligated rats, the “Acidity Total mEg” value is given as 42.20 (±2.20) m Eg, the Gastric content was 1.92 (±0.20), the “Ulcer index Mean(SE)” value is reported as 43.33 (±2.10) and the pH is 3.66 (±0.20).
As to `COc1c(OC(=O)c2ccc(C)cc2)cc2oc(-c3ccccc3)cc(=O)c2c1O` [ORPM-1, 4-methyl-benzoic acid 5-hydroxy-6-methoxy-4-oxo-2-phenyl-4-H-chromen-7-yl ester], in assay [1], the Inhibition % is listed as 16.91% and the “Ulcer index Mean(SE)” value amounted to 37.49. In assay [2], the Inhibition % worked out at 24.23% and the “Ulcer index Mean(SE)” value was 22.85. For the same molecule, in assay [3], the Inhibition % was found to be 28.75%, the “Ulcer index Mean(SE)” value was 47.50 (±1.11), the “Acidity Total mEg” value is 44.24 (±0.62) mEg and the Gastric content is 3.0 (±1.50). Besides, the pH in assay [3] is 3.50 (±0.18). Moreover, in the assay with Pylorus ligated rats, the “Acidity Total mEg” value is reported as 45.24 (±0.30) m Eg, the Gastric content was 2.20 (±0.22), the Inhibition % was found to be 16.87% and the “Ulcer index Mean(SE)” value was 41.66 (±2.78). For the same molecule, the pH in the assay on Pylorus ligated rats is 3.20 (±0.25).
